One block for each compound: values may come before it. Where a SMILES comes first, the peptide text is derived from it. The star is where a group is joined. Biotin = O=C1N[C@H]2[C@H](CS[C@H]2CCCCC(=O)*)N1
Tests used:
PSMA = PSMA (Homo sapiens, UniProt Q04609); details: reported in literature; cited from earlier work
wild-type ERG (wtERG) = biological target: T1, wild-type ERG (wtERG) (Homo sapiens, UniProt P11308); experiment: Pull-down of purified recombinant proteins with biotin-peptides; type: binding; details: purified recombinant protein
T1 construct: cDNAs encoding full-length ERG and GUS were cloned into pDEST10 vector; His; made in house; host or cells: SF9 insect cells (Bac-to-Bac baculovirus)
Method: (A) Pull-down experiment was performed by incubating purified recombinant proteins and biotin-peptides. (B-C) Representative sensorgrams for both wtERG and ERG_Y373A binding to EIP1. Real-time binding was measured by immobilization of biotinylated proteins to the streptavidin biosensors and subsequent interactions with varying concentrations of synthetic peptides as indicated. (D) Steady-state analysis of real-time binding data for wtERG/ERG_Y373A and synthetic peptides. (E) Electrophoretic mobility shift assay (EMSA) for ERG and ETS binding sequence (EBS).

VCaP ERG = biological target: T2, VCaP ERG (Homo sapiens, UniProt P11308); experiment: Pull-down from whole cell lysates normalized for ERG levels; type: binding
T2 construct: endogenous in cells; host or cells: VCaP cells (ATCC): cultured cells, lysates or extracts, or VCaP xenograft tumours in nude mice
Method: (§1) Approximately 1 mg of soluble VCaP cell lysate prepared in RIPA buffer (Invitrogen) was incubated with varying amounts of biotinylated peptides for 2 hours at 4° C. HaloLink agarose beads (20 μl) were added to the peptide-lysate mixture and incubated for an additional 4 hours. Beads were then pelleted by centrifugation, washed three times in PBS-T and loaded into an SDSPAGE gel followed by Western blot analysis. Total VCaP cell lysate was loaded for positive control.
It was then determined whether RI-EIP affects normal ERG function.

HUVEC ERG = biological target: T3, HUVEC ERG (Homo sapiens, UniProt P11308); experiment: as above; type: binding
T3 construct: wild-type ERG expressed in human or murine endothelial cells; endogenous in cells; host or cells: HUVEC (human umbilical vein endothelial cells)

[1] = human, in vivo; cited from earlier work
ERG [2] = biological target: T4, ERG (Homo sapiens, UniProt P11308)
T4 sequence (P11308 1-479): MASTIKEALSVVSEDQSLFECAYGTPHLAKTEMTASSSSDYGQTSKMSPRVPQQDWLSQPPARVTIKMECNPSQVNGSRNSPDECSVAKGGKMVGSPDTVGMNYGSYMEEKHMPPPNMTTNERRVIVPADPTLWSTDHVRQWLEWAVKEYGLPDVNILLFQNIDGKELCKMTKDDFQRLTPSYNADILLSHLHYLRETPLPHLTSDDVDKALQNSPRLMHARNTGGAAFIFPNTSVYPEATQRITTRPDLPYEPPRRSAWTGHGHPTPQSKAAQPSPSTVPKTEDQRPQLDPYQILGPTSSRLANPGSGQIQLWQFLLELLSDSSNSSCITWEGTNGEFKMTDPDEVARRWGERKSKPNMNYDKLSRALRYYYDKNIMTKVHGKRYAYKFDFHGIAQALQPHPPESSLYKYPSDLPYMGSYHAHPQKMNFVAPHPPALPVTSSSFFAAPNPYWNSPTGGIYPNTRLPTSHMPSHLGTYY
Text: (§2) Halo fusion proteins were expressed using the TNT® SP6 High-Yield Wheat Germ kit (Promega) following the manufacturer's protocol.

ERG_Y373A = ERG_Y373A (Homo sapiens, UniProt P11308, Y373A)
Text: as §2

[3] = biological target: T5, TMPRSS2:ERG gene fusion product (endogenous ERG) (Homo sapiens, UniProt P11308); experiment: Biotin-peptide pull-down from VCaP cell lysates, immunoblot and mass spectrometry; type: binding; details: 53 kDa band of pull-downs, mass spectrometry
T5 construct: endogenous in cells; host or cells: VCaP cells (ATCC): cultured cells, lysates or extracts, or VCaP xenograft tumours in nude mice
Method: as §1
The samples were treated with SDS loading buffer supplied with 10 mM DTT for 5 min at 85° C. The proteins were alkylated by adding iodoacetamide to the final concentration of 15 mM. The samples were subjected to SDS-PAGE and the whole lanes were cut out and digested with trypsin in-gel for 2 hours. […]
The resulting spectrum files were transformed into MGF format by MSConvert software and interrogated by MASCOT 2.4 search engine using human UniProt database version 15 concatenated with reverse sequences for estimation of false discovery rate (FDR) and with a list of common contaminants. […] The peptide FDR was calculated as 2×(decoy_hits)/(target+decoy hits). Spectral counts for all detected proteins were assembled using an in-house written Python script. […]

ERG [4] = biological target: T4, ERG; remark: listed apart in the source
Method: The interaction coefficients between ERG and synthetic peptides or peptidomimetics were determined by biolayer interferometry technology using the Octet Red system (ForteBio). Purified ERG and GUS proteins were biotinylated by EZLink NHS-PEG4 Biotinylation Kit (Thermo Scientific) following the manufacturer's protocol and any unincorporated biotin was removed from the reactions with Zeba 2 ml desalt columns (Thermo). Biotinylated proteins (500 μg/ml) were then incubated with super streptavidin biosensors in binding buffer (20 mM HEPES pH 7.4, 150 mM NaCl), blocked with 10 μg/ml biocytin and washed three times in binding buffer. Peptides were serially diluted in binding buffer, mixed with the protein-coupled biosensors and peptidomimetic:protein association/dissociation was monitored for 10 min at 25° C. Nonspecific binding from the signal obtained from peptidomimetic:GUS interactions was subtracted from that of peptidomimetic:ERG interactions and baseline signal drift was controlled by monitoring immobilized ERG without peptide. Octet Red analysis software was used to analyze the data.

GRPR = GRPR (Homo sapiens, UniProt P30550); details: Peptides 13, 775 (1992); cited from earlier work
Chain of GRPR (P30550 whole entry, species assumed): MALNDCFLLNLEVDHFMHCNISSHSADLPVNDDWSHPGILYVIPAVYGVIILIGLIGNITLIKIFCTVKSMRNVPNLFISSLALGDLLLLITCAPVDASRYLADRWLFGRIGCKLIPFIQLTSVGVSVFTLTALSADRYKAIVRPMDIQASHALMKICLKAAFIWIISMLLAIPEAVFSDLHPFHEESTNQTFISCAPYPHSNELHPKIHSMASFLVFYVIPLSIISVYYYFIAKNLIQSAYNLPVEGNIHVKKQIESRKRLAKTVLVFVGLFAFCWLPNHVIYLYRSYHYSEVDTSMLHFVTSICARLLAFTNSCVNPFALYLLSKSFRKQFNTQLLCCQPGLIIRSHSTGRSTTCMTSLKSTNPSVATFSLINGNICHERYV

Chain of ERG_Y373A (P11308 whole entry Y373A, the tested form may be a part): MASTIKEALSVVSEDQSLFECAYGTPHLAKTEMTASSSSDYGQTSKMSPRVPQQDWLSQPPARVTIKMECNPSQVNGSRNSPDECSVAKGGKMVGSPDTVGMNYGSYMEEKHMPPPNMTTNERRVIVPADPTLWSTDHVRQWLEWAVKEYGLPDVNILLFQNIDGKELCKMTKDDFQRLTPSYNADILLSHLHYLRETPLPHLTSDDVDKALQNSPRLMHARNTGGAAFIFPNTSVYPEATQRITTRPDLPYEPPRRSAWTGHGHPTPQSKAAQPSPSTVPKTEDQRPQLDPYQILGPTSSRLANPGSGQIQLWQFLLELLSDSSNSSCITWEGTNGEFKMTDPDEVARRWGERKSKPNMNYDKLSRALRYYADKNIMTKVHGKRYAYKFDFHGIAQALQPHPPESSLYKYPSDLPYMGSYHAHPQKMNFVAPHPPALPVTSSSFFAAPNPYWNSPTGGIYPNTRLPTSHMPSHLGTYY
Chain of PSMA (Q04609 whole entry): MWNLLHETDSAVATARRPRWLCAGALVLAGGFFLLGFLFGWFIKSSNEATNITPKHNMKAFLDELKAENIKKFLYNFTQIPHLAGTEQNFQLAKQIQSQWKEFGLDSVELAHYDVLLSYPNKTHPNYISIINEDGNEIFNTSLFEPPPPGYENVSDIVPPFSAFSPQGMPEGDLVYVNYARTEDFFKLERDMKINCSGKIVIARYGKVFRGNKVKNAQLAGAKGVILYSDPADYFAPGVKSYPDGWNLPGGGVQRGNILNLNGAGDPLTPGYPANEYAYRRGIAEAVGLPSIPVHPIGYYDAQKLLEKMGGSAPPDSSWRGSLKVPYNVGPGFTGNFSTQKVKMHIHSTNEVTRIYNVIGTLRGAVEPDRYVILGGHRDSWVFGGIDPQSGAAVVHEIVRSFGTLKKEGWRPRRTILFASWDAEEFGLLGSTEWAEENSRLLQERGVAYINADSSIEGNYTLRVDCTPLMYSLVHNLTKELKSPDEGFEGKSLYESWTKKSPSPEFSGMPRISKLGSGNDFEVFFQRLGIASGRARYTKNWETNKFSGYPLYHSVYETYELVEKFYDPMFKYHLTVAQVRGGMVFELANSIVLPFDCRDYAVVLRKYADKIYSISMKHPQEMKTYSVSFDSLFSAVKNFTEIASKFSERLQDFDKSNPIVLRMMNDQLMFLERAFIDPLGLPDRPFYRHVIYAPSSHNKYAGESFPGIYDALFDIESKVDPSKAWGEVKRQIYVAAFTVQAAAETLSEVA

Compound: O=C(O)CC[C@H](NC(=O)N[C@@H](CCCCN(Cc1ccc(Br)cc1)C(=O)CCOCCOCCOCCOCCOCCOCCOCCOCCOCCOCCOCCOCCNC(=O)CCCC[C@@H]1SC[C@@H]2NC(=O)N[C@@H]21)C(=O)O)C(=O)O [Analogue 3]
IC50 (PSMA): 1.3 nM

pull-down of wtERG (wild-type ERG (wtERG)): pulled down
amount of cell lysate for ERG pull-down (VCaP ERG): 0.25 mg/mL
amount of cell lysate for ERG pull-down (HUVEC ERG): 8 mg/mL
Compound: CC(C)C[C@H](NC(=O)[C@H](Cc1ccc(O)cc1)NC(=O)[C@@H]1CCCN1C(=O)[C@@H]1CCCN1C(=O)[C@H](CC(C)C)NC(=O)CCCC[C@@H]1SC[C@@H]2NC(=O)N[C@@H]21)C(=O)N[C@@H](Cc1ccccc1)C(=O)N[C@H](C(=O)O)[C@@H](C)O [Biotin-EIP1, Biotin-LPPYLFT] (Biotin-LPPYLFT-OH)

Compound: CCNC(=O)[C@@H]1CCCN1C(=O)[C@H](CCCNC(=N)N)NC(=O)[C@H](CC(C)C)NC(=O)[C@@H](CC(C)C)NC(=O)[C@H](Cc1ccc(O)cc1)NC(=O)[C@H](CO)NC(=O)[C@H](Cc1c[nH]c2ccccc12)NC(=O)[C@H](Cc1c[nH]cn1)NC(=O)[C@@H]1CCC(=O)N1 [Leuprolide, pyro-EHWSY1LRP-NHEt]
half life [1]: 3 h

interaction with ERG (ERG [2]): interact strongly
interaction with ERG (Y373A) (ERG_Y373A): No interaction was detected
spectral counts for the ERG peptide NTGGAAFIFPNTSVYPEATQR [3]: 111 spectral counts
Compound: CC(C)C[C@H](NC(=O)CCCC[C@@H]1SC[C@@H]2NC(=O)N[C@@H]21)C(=O)N[C@@H](CO)C(=O)N[C@@H](Cc1ccccc1)C(=O)NCC(=O)N[C@@H](CO)C(=O)N[C@@H](CC(C)C)C(=O)N1CCC[C@H]1C(=O)O [biotin-EIP2, Biotin-LSFGSLP] (Biotin-LSFGSLP-OH)

binding to ERG (ERG [4]): most potent truncated peptides
Compound: H-PYLFT-NH2 [Compound 5PT-N, NH2-PYLFT-NH2]

Compound: fQWAVaHLM-OMe
affinity as GRPR antagonist (GRPR): good affinity

— patent US10774122B2, “ERG targeted therapy” (The Regents of the University of Michigan, priority 2017, dated 2020)
